Assay results: US9688691B2, “Macrocyclic quinazole derivatives and their use as MTKI” (Janssen Pharmaceutica NV, priority 2004, dated 2017)

Tests used:
Assay type in all cases: biochemical
[1] = molecular target: ErbB4 (h) (Homo sapiens, UniProt Q15303); test: Kinase profiling, glass-fiber filter technology: ErbB4; settings: test concentration of 10^−6 M; read-out: ErbB4 inhibition score
Description: (§1) The in vitro inhibition of a panel of kinases was assessed using the glass-fiber filter technology as described by Davies, S. P. et al., Biochem J. (2000), 351; p. 95-105.
(§2) In the glass-fiber filter technology the activity of the kinase of interest is measured using an appropriate substrate that is incubated with the aforementioned kinase protein in the presence of (^33P) radiolabeled ATP. (^33P) Phosporylation of the substrate is subsequently measured as radioactivity bound on a glassfiber-filter.
(§3) All kinases are pre-diluted to a 10× working concentration prior to addition into the assay. The composition of the dilution buffer for each kinase is detailed below.
(§4) All substrates are dissolved and diluted to working stocks in de-ionised water.
(§5) In a final reaction volume of 25 μl, ErbB4 (h) (5-10 mU) is incubated with 8 mM MOPS pH 7.0, 0.2 mM EDTA, 10 mM MnCl2, 0.1 mg/ml poly(Glu, Tyr) 4:1, 10 mM MgAcetate and [γ-33P-ATP] (specific activity approx. 500 cpm/pmol, concentration as required). The reaction is initiated by the addition of the MgATP mix. After incubation for 40 minutes at room temperature, the reaction is stopped by the addition of 5 μl of a 3% phosphoric acid solution. 10 μl of the reaction is then spotted onto a Filtermat A and washed three times for 5 minutes in 75 mM phosphoric acid and once in methanol prior to drying and scintillation counting.

[2] = molecular target: cSRC (h) (Homo sapiens, UniProt P12931); test: Kinase profiling, glass-fiber filter technology: cSRC; settings: test concentration of 10^−6 M; read-out: cSRC inhibition score
Description: as §1, §2, §3, §4
(§6) In a final reaction volume of 25 μl, cSRC (h) (5-10 mU) is incubated with 8 mM MOPS pH 7.0, 0.2 mM EDTA, 250 μM KVEKIGEGTYGVVYK (Cdc2 peptide), 10 mM MgAcetate and [γ-^33P-ATP] (specific activity approx. 500 cpm/pmol, concentration as required). The reaction is initiated by the addition of the MgATP mix. After incubation for 40 minutes at room temperature, the reaction is stopped by the addition of 5 μl of a 3% phosphoric acid solution.
(§7) 10 μl of the reaction is then spotted onto a P30 filtermat and washed three times for 5 minutes in 75 mM phosphoric acid and once in methanol prior to drying and scintillation counting.

[3] = molecular target: Lck (h) (Homo sapiens, UniProt P06239); test: Kinase profiling, glass-fiber filter technology: Lck; settings: test concentration of 10^−6 M; read-out: Lck inhibition score
Description: as §1, §2, §3, §4
as §6, with “Lck” for “cSRC”, “50” for “8”, “Tris” for “MOPS”, “7.5, 0.1” for “7.0, 0.2”, “EGTA, 0.1 mM Na3VO4,” for “EDTA,”
as §7

[4] = molecular target: Yes (h) (Homo sapiens, UniProt P07947); test: Kinase profiling, glass-fiber filter technology: Yes; settings: test concentration of 10^−6 M; read-out: Yes inhibition score
Description: as §1, §2, §3, §4
as §5, with “Yes” for “ErbB4”, “EDTA,” for “EDTA, 10 mM MnCl2,”, “[γ-^33P-ATP]” for “[γ-33P-ATP]”

[5] = molecular target: Abl (h) (Homo sapiens, UniProt P00519); test: Kinase profiling, glass-fiber filter technology: Abl; settings: test concentration of 10^−6 M; read-out: Abl inhibition score
Description: as §1, §2, §3, §4
as §5, with “Abl” for “ErbB4”, “50 μM EAIYAAPFAKKK,” for “10 mM MnCl2, 0.1 mg/ml poly(Glu, Tyr) 4:1,”, “[γ-^33P-ATP]” for “[γ-33P-ATP]”, “P30 filtermat” for “Filtermat A”

[6] = molecular target: Ret human (Homo sapiens, UniProt P07949); test: Kinase profiling, glass-fiber filter technology: Ret; settings: test concentration of 10^−6 M; read-out: Ret inhibition score
Description: as §1, §2, §3, §4
as §5, with “Ret human” for “ErbB4 (h)”, “250 μM KKKSPGEYVNIEFG,” for “10 mM MnCl2, 0.1 mg/ml poly(Glu, Tyr) 4:1,”, “[γ-^33P-ATP]” for “[γ-33P-ATP]”, “P30 filtermat” for “Filtermat A”

[7] = molecular target: Flt1 human (Homo sapiens, UniProt P17948); test: Kinase profiling, glass-fiber filter technology: Flt1; settings: test concentration of 10^−6 M; read-out: Flt1 inhibition score
Description: as §1, §2, §3, §4
as §5, with “Flt1 human” for “ErbB4 (h)”, “250 μM KKKSPGEYVNIEFG,” for “10 mM MnCl2, 0.1 mg/ml poly(Glu, Tyr) 4:1,”, “[γ-^33P-ATP]” for “[γ-33P-ATP]”, “P30 filtermat” for “Filtermat A”

Sequence of ErbB4 (h) (Q15303 26-1308): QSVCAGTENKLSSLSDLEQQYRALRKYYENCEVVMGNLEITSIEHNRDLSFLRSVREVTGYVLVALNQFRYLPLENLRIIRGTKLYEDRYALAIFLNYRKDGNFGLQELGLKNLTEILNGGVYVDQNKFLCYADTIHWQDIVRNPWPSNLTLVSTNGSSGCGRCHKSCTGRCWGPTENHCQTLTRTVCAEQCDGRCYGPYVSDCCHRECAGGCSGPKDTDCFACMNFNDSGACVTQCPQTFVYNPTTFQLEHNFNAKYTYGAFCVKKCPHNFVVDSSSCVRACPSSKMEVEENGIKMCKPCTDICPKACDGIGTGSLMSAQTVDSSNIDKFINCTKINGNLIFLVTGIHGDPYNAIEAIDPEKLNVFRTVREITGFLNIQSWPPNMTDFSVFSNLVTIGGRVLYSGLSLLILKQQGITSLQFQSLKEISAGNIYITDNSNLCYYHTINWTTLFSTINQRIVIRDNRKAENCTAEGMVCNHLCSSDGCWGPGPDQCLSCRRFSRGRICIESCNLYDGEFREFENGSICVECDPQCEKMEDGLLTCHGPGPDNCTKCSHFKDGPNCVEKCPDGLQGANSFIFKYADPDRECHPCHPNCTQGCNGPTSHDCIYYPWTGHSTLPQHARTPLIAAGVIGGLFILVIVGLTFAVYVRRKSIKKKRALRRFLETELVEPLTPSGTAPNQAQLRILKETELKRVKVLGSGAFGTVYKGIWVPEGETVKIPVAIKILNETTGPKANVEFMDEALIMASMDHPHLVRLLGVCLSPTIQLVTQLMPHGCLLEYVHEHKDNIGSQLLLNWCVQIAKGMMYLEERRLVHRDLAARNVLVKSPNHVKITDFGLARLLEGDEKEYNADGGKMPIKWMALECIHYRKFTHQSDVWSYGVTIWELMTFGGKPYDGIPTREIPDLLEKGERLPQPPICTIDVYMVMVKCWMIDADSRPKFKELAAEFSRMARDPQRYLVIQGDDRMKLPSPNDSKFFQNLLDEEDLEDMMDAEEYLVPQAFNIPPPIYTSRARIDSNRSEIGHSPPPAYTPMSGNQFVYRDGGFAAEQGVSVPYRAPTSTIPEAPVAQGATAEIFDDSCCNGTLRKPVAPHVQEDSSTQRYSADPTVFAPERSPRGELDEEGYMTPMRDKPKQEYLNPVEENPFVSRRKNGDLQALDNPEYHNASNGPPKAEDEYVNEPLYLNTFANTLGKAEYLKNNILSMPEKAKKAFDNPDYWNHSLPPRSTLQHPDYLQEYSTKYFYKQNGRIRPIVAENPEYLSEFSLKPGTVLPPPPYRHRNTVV
Sequence of Yes (h) (P07947 whole entry): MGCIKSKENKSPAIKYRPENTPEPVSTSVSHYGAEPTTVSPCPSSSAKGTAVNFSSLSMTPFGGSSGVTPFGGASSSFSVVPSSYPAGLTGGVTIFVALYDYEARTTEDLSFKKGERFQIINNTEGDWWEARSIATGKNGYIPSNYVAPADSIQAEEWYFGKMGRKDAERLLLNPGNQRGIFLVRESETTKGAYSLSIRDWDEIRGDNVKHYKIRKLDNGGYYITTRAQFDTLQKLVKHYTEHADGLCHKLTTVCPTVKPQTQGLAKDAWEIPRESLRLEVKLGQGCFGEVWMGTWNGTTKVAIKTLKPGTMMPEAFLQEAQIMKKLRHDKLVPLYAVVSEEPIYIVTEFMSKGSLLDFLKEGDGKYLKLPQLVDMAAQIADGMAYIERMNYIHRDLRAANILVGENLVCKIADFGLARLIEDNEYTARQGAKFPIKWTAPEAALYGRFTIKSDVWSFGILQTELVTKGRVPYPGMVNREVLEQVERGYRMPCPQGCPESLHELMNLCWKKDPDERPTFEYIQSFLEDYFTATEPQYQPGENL
Sequence of Ret human (P07949 29-1114): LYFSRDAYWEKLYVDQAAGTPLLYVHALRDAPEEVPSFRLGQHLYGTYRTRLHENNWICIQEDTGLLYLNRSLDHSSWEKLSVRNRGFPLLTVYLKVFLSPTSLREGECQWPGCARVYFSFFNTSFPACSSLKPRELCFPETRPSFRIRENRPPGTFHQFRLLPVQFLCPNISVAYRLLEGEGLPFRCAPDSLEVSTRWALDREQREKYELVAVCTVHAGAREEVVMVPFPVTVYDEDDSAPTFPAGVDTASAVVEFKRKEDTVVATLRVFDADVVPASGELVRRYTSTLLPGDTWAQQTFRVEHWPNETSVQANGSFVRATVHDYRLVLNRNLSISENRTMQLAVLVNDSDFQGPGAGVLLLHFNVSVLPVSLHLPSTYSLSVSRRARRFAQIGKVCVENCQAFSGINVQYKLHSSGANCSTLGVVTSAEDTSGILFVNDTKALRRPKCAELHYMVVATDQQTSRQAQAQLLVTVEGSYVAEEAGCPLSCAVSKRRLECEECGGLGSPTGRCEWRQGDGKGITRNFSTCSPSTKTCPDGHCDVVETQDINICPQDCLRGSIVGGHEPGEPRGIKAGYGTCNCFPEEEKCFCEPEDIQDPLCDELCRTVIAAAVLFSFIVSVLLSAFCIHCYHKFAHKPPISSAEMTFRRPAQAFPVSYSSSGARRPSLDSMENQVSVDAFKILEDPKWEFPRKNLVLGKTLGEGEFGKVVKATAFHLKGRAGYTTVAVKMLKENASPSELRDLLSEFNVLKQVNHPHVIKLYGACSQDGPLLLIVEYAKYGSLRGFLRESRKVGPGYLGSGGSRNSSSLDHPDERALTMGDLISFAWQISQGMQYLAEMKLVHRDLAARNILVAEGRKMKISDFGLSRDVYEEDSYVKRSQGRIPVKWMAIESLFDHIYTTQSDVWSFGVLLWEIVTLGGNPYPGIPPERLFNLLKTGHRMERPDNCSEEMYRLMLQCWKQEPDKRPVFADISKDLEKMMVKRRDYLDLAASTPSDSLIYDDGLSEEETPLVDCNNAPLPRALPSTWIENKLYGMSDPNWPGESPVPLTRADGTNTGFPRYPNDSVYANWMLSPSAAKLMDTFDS
Sequence of Flt1 human (P17948 27-1338): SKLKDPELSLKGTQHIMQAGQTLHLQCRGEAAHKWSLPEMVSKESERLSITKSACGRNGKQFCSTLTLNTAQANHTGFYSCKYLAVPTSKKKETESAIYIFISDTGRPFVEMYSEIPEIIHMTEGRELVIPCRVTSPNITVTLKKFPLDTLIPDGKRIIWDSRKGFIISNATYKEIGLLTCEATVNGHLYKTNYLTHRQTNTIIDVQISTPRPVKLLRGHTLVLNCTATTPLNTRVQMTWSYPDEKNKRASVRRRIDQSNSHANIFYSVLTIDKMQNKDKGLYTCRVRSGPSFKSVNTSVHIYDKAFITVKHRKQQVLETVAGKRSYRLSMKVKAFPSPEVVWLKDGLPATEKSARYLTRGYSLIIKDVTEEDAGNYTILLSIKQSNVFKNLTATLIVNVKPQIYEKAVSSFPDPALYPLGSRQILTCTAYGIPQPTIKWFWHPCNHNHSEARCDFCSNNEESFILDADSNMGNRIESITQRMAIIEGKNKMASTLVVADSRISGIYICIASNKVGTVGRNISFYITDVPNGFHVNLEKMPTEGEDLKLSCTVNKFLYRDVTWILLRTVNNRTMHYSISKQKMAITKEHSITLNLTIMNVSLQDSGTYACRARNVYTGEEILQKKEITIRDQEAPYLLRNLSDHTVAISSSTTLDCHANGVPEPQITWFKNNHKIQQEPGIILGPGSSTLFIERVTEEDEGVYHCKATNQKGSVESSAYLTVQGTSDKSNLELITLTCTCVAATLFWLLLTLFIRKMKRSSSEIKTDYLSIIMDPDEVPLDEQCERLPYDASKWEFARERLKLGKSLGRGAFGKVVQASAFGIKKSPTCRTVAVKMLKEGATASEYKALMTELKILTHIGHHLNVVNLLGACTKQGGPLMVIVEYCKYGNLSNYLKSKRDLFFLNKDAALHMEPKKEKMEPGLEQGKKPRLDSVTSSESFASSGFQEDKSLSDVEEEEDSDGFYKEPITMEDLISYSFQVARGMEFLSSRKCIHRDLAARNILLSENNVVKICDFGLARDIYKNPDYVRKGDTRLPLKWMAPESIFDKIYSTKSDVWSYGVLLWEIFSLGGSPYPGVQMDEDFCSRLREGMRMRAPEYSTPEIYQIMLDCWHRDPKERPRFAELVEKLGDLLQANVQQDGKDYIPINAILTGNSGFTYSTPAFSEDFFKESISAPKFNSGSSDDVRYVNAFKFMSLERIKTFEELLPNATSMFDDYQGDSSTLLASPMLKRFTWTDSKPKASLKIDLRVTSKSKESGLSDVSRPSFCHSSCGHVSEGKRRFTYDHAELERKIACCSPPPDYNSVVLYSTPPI
Sequence of Lck (h) (P06239 whole entry): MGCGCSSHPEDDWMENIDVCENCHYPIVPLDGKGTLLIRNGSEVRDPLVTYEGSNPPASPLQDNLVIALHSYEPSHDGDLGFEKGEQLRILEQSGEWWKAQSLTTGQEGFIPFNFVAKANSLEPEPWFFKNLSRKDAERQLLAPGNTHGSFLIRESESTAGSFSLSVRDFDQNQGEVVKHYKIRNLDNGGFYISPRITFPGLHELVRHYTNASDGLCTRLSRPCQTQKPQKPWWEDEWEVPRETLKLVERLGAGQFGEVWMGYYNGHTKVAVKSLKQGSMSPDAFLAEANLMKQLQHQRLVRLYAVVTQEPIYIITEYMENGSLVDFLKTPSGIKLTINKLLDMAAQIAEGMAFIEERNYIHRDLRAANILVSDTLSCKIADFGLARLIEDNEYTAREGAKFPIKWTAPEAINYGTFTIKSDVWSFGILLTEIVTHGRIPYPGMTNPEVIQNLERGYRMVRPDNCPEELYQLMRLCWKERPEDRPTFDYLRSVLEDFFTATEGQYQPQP

Row | Compound | inhibition at 1 µM [1] [%] | inhibition at 1 µM [2] [%] | inhibition at 1 µM [3] [%] | inhibition at 1 µM [4] [%] | inhibition at 1 µM [5] [%] | inhibition at 1 µM [6] [%] | inhibition at 1 µM [7] [%]
1 | CN1CCCCCOc2cc3c(ncnc3cc2OCCCNCCS(C)(=O)=O)Nc2cc(Br)ccc2C1 [Compound 14] | > 80 | > 80 | > 80 | > 80 |  | > 80 | > 80
2 | COc1cc2ncnc3c2cc1OCCCN(CCCN1CCOCC1)C(=O)[C@H](CC(C)C)NC(=O)Cc1ccc(Br)cc1N3 [Int. 25] | 30 to 60 | 30 to 60 | 60 to 80 | > 80 | 10 to 30 | 30 to 60 | 10 to 30
3 | CN1CCCCCOc2cc3c(ncnc3cc2OC[C@@H](O)CN2CCS(=O)(=O)CC2)Nc2cc(Br)ccc2C1 [Compound 12] | 60 to 80 | > 80 | > 80 | > 80 |  | > 80 | 60 to 80
4 | CC(=O)NCCNCCCOc1cc2ncnc3c2cc1OCCCCCN(C)Cc1ccc(Br)cc1N3 [Compound 13] | > 80 | > 80 | > 80 | > 80 |  | > 80 | > 80
5 | C#Cc1ccc2c(c1)Nc1ncnc3cc(OCCCNCCS(C)(=O)=O)c(cc13)OCCCCCN(C)C2 [Compound 20] | > 80 | > 80 | > 80 | > 80 |  | > 80 | > 80
6 | COc1cc2ncnc3c2cc1OCCCN(CCN1CCOCC1)C(=O)CNC(=O)Cc1ccc(Cl)cc1N3 [Compound 15] | 10 to 30 | 30 to 60 | 30 to 60 | 60 to 80 | > 80 | 10 to 30 | 10 to 30
7 | CN1CCCCCOc2cc3c(ncnc3cc2OCCCNC(=O)OC(C)(C)C)Nc2cc(Br)ccc2C1 [Compound 11] | 10 to 30 | 60 to 80 |  | > 80 |  | > 80 | 30 to 60

Next, values leading:

Row | inhibition at 1 µM [1] [%] | inhibition at 1 µM [2] [%] | inhibition at 1 µM [3] [%] | inhibition at 1 µM [4] [%] | inhibition at 1 µM [5] [%] | inhibition at 1 µM [6] [%] | inhibition at 1 µM [7] [%] | Compound
8 | > 80 | > 80 | > 80 | > 80 | > 80 |  |  | CN1CCCCCOc2cc3c(ncnc3cc2OCCCNCCS(C)(=O)=O)Nc2cc(Cl)c(F)cc2C1 [Compound 18]
9 | 30 to 60 | > 80 | > 80 | > 80 |  | > 80 | 30 to 60 | CC(=O)OCCN(C)CCCOc1cc2ncnc3c2cc1OCCCNC(=O)[C@H](C)N(C)Cc1cc(F)c(Cl)cc1N3 [Compound 2]
10 | 10 to 30 | > 80 | 60 to 80 | > 80 |  | 60 to 80 | 30 to 60 | CC(=O)N(CCO)CCCOc1cc2ncnc3c2cc1OCCCNC(=O)[C@H](C)N(C)Cc1cc(F)c(Cl)cc1N3 [Compound 5]
11 | 10 to 30 | > 80 | > 80 |  |  | > 80 | 60 to 80 | C[C@H]1C(=O)NCCCOc2cc3c(ncnc3cc2OCCCN2CCN(C(=O)OC(C)(C)C)CC2)Nc2cc(Cl)c(F)cc2CN1C [Int. 16]
12 | > 80 | > 80 | > 80 | > 80 | > 80 |  |  | CN1CCCCCOc2cc3c(ncnc3cc2OC[C@H](O)CNCCOCCO)Nc2cc(Cl)c(F)cc2C1 [Compound 17]
13 | 10 to 30 | > 80 | > 80 | > 80 | 60 to 80 | > 80 | 60 to 80 | COCCOCCOc1cc2ncnc3c2cc1OCCCCCN(C)Cc1ccc(Br)cc1N3 [Int. 43]
14 | 60 to 80 | > 80 | > 80 | > 80 |  | > 80 | > 80 | CN1CCCCCOc2cc3c(ncnc3cc2OCCCN2CCS(=O)(=O)CC2)Nc2cc(Cl)c(F)cc2C1 [Compound 19]
15 | 30 to 60 | > 80 | > 80 | > 80 |  | > 80 | 30 to 60 | CC(=O)NCCNCCCOc1cc2ncnc3c2cc1OCCCNC(=O)[C@H](C)N(C)Cc1cc(F)c(Cl)cc1N3 [Compound 4]
16 | 60 to 80 | > 80 | > 80 | > 80 | > 80 |  |  | CC(=O)NCCN1CCN(CCCOc2cc3ncnc4c3cc2OCCCNC(=O)[C@H](C)N(C)Cc2cc(F)c(Cl)cc2N4)CC1 [Compound 6]
